Data from US12371454B2, “Cyclic peptide compound having Kras inhibitory action” (priority 2019, dated 2025).
Starred links: 1 amine or outer side, 2 acyl side, 3 side chain; linkers in the order of their positions; H or OH if unused. Positions of bridges follow the written chain, without caps; N, C: chain ends. Non-standard residues stand in square brackets, D forms with d. Residues, ends and D or L forms follow the SMILES beside them. *: point of attachment. hPhe(3-Cl-4-CF3) = N[C@@H](CCc1ccc(C(F)(F)F)c(Cl)c1)C(=O)O; X12 = CN([C@@H](Cc1ccc(C(F)(F)F)nc1)C(=O)[*:2])[*:1]; X82 = O=C([C@H](Cc1cccc(OC(F)(F)F)c1)N[*:1])[*:2]; Phe(3,5-Cl2) = N[C@@H](Cc1cc(Cl)cc(Cl)c1)C(=O)O; X17 = Cc1cncc(C[C@@H](C(=O)[*:2])N(C)[*:1])c1; NMePhe(4-Cl) = CN[C@@H](Cc1ccc(Cl)cc1)C(=O)O; NMePhe(4-Me) = CN[C@@H](Cc1ccc(C)cc1)C(=O)O; NMePhe(3-F) = CN[C@@H](Cc1cccc(F)c1)C(=O)O; hPhe(4-Cl) = N[C@@H](CCc1ccc(Cl)cc1)C(=O)O; NMeGly(cPent) = CN[C@H](C(=O)O)C1CCCC1; Phe(2-OMe) = COc1ccccc1C[C@H](N)C(=O)O; Phe(3-I) = N[C@@H](Cc1cccc(I)c1)C(=O)O; Phe(3-Me) = Cc1cccc(C[C@H](N)C(=O)O)c1; NMe3Pal = CN[C@@H](Cc1cccnc1)C(=O)O; NMeGly(cBu) = CN[C@H](C(=O)O)C1CCC1; NMeCha = CN[C@@H](CC1CCCCC1)C(=O)O; NMeChg = CN[C@H](C(=O)O)C1CCCCC1; NMeF = CN[C@@H](Cc1ccccc1)C(=O)O; hPhe = N[C@@H](CCc1ccccc1)C(=O)O; N(CH2CH2)2CF2 = FC1(F)CCN(*)CC1; NMeD = CN[C@@H](CC(=O)O)C(=O)O; NMeL = CN[C@@H](CC(C)C)C(=O)O; Cba = N[C@@H](CC1CCC1)C(=O)O; NMeV = CN[C@H](C(=O)O)C(C)C; d(β3hA) = C[C@@H](N)CC(=O)O; NMeA = CN[C@@H](C)C(=O)O; NMeAib = CNC(C)(C)C(=O)O; Nle = CCCC[C@H](N)C(=O)O; Piperidide = C1CCN(*)CC1; Pyrrolidide = C1CCN(*)C1; dNMeA = CN[C@H](C)C(=O)O; Ac5c = NC1(C(=O)O)CCCC1; Aze = O=C(O)[C@@H]1CCN1; Thp = NC1(C(=O)O)CCOCC1; Abu = CC[C@H](N)C(=O)O; Ac3c = NC1(C(=O)O)CC1; Aib = CC(C)(N)C(=O)O; Sar = CNCC(=O)O

target: T1, Kras and SOS1 (biotin-tagged human Kras loaded with GDP, His-tagged human SOS1) (Homo sapiens, UniProt P01116, G12D); assay: Protein-protein interaction inhibition between Kras and SOS1 (KrasGl2D-SOS PPI) using AlphaScreen; assay type: binding; details: AlphaScreen; biotin-tagged human Kras loaded with GDP, His-tagged human SOS1; read-out: KRAS G12D-SOS PPI IC50
T1 construct: made in house; host or cells: E. coli (stated for Kras only)
T1 sequence (P01116 1-188 isoform P01116-2 G12D): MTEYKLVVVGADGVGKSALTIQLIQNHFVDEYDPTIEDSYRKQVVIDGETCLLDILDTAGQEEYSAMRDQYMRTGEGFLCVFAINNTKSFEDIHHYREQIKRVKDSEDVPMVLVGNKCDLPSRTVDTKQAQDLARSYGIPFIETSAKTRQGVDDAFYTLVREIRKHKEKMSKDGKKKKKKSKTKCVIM
Method in brief: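 Read-out is acceptor-bead light at 520-620 nm, arising when 680 nm-irradiated nickel donor beads pass singlet oxygen to streptavidin acceptors. The bead pair links His-tagged SOS1 with biotin-tagged, GDP-bound Kras from E. coli.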

Compound | IC50
CCCC[C@@H]1NC(=O)[C@H](Cc2cc(Cl)cc(Cl)c2)NC(=O)CN(C)C(=O)[C@H](Cc2ccc(Cl)cc2)N(C)C(=O)CN(C)C(=O)CN(C)C(=O)[C@H]([C@@H](C)CC)NC(=O)[C@H](CC(C)C)N(C)C(=O)C[C@@H](C(=O)N2CCCCC2)N(C)C(=O)[C@H](CC(C)C)NC(=O)C(C)(C)N(C)C1=O [Compound 431] ([NMeL]I[Sar][Sar][NMePhe(4-Cl)][Sar][Phe(3,5-Cl2)][Nle][NMeAib]L[NMeD]-Piperidide; lactam N-11) | 250 nM
CC[C@H](C)[C@@H]1NC(=O)[C@H](C)N(C)C(=O)C[C@@H](C(=O)N2CCCCC2)N(C)C(=O)[C@H](C2CCCCC2)N(C)C(=O)C2(CCCC2)NC(=O)[C@H](Cc2cccnc2)N(C)C(=O)[C@H](CCc2ccc(C(F)(F)F)c(Cl)c2)NC(=O)CN(C)C(=O)[C@H](CC2CCCCC2)N(C)C(=O)[C@@H]2CCCN2C(=O)CN(C)C1=O [Compound 433] ([NMeA]I[Sar]P[NMeCha][Sar][hPhe(3-Cl-4-CF3)][NMe3Pal][Ac5c][NMeChg][NMeD]-Piperidide; lactam N-11) | 2.2 nM
CC[C@H](C)[C@@H]1NC(=O)[C@H](CC(C)C)N(C)C(=O)C[C@@H](C(=O)N2CCCCC2)N(C)C(=O)[C@H](CC(C)C)NC(=O)C(C)(C)N(C)C(=O)[C@H](CCc2ccccc2)NC(=O)[C@H](Cc2cccc(I)c2)NC(=O)CN(C)C(=O)[C@H](Cc2ccc(C)cc2)N(C)C(=O)[C@@H]2CCN2C(=O)CN(C)C1=O [Compound 442] ([NMeL]I[Sar][Aze][NMePhe(4-Me)][Sar][Phe(3-I)][hPhe][NMeAib]L[NMeD]-Piperidide; lactam N-11) | 70 nM
CC[C@H](C)[C@@H]1NC(=O)[C@H](CC(C)C)N(C)C(=O)C[C@@H](C(=O)N2CCCCC2)N(C)C(=O)[C@H](C(C)C)N(C)C(=O)[C@H](C)NC(=O)[C@H](CC(=O)N2CCC(F)(F)CC2)N(C)C(=O)[C@H](CCc2ccc(C(F)(F)F)c(Cl)c2)NC(=O)CN(C)C(=O)[C@H](CC2CCCCC2)N(C)C(=O)CN(C)C(=O)CN(C)C1=O [Compound 444] ([NMeL]I[Sar][Sar][NMeCha][Sar][hPhe(3-Cl-4-CF3)][NMeD](N(CH2CH2)2CF2)A[NMeV][NMeD]-Piperidide; lactam N-11) | 18 nM
CC[C@H](C)[C@@H]1NC(=O)[C@H](C)N(C)C(=O)C[C@@H](C(=O)N2CCCCC2)N(C)C(=O)[C@H](C(C)C)N(C)C(=O)C2(CCCC2)NC(=O)[C@@H]2CCCN2C(=O)[C@H](CCc2ccc(C(F)(F)F)c(Cl)c2)NC(=O)[C@H]2CCCN2C(=O)[C@H](CC2CCCCC2)N(C)C(=O)[C@@H]2CCN2C(=O)CN(C)C1=O [Compound 447] ([NMeA]I[Sar][Aze][NMeCha][dP][hPhe(3-Cl-4-CF3)]P[Ac5c][NMeV][NMeD]-Piperidide; lactam N-11) | 14 nM
CC[C@H](C)[C@@H]1NC(=O)[C@H](CC(C)C)N(C)C(=O)C[C@@H](C(=O)N2CCCCC2)N(C)C(=O)[C@H](C(C)C)N(C)C(=O)C2(CCOCC2)NC(=O)[C@@H]2CCCN2C(=O)[C@H](CCc2ccc(Cl)cc2)NC(=O)CN(C)C(=O)[C@H](CC2CCCCC2)N(C)C(=O)CN(C)C(=O)CN(C)C1=O [Compound 448] ([NMeL]I[Sar][Sar][NMeCha][Sar][hPhe(4-Cl)]P[Thp][NMeV][NMeD]-Piperidide; lactam N-11) | 91 nM
CC(C)C[C@H]1C(=O)N[C@@H](CC2CCC2)C(=O)N(C)CC(=O)N(C)CC(=O)N(C)[C@@H](CC2CCCCC2)C(=O)N(C)CC(=O)N[C@@H](CCc2ccc(C(F)(F)F)c(Cl)c2)C(=O)N2CCC[C@H]2C(=O)NC2(CCCC2)C(=O)N(C)[C@@H](C(C)C)C(=O)N(C)[C@H](C(=O)N2CCCCC2)CC(=O)N1C [Compound 451] ([NMeL][Cba][Sar][Sar][NMeCha][Sar][hPhe(3-Cl-4-CF3)]P[Ac5c][NMeV][NMeD]-Piperidide; lactam N-11) | 10 nM
CC[C@@H]1NC(=O)[C@H](Cc2cccc(I)c2)NC(=O)CN(C)C(=O)[C@H](Cc2ccc(Cl)cc2)N(C)C(=O)CN(C)C(=O)CN(C)C(=O)[C@H]([C@@H](C)CC)NC(=O)[C@H](CC(C)C)N(C)C(=O)C[C@@H](C(=O)N2CCCCC2)N(C)C(=O)[C@H](CC(C)C)NC(=O)C(C)(C)N(C)C1=O [Compound 457] ([NMeL]I[Sar][Sar][NMePhe(4-Cl)][Sar][Phe(3-I)][Abu][NMeAib]L[NMeD]-Piperidide; lactam N-11) | 69 nM
CC[C@H](C)[C@@H]1NC(=O)[C@H](CC(C)C)N(C)C(=O)C[C@@H](C(=O)N2CCCCC2)N(C)C(=O)[C@H](CC(C)C)NC(=O)C(C)(C)N(C)C(=O)[C@H](Cc2ccccc2OC)NC(=O)[C@H](Cc2cccc(I)c2)NC(=O)CN(C)C(=O)[C@H](Cc2ccc(C)cc2)N(C)C(=O)[C@@H]2CCN2C(=O)CN(C)C1=O [Compound 459] ([NMeL]I[Sar][Aze][NMePhe(4-Me)][Sar][Phe(3-I)][Phe(2-OMe)][NMeAib]L[NMeD]-Piperidide; lactam N-11) | 9.5 nM
CC[C@H](C)[C@@H]1NC(=O)[C@H](CC(C)C)N(C)C(=O)C[C@@H](C(=O)N2CCCCC2)N(C)C(=O)[C@H](C(C)C)N(C)C(=O)C(C)(C)NC(=O)[C@H](CC(=O)N2CCC(F)(F)CC2)N(C)C(=O)[C@H](CCc2ccc(C(F)(F)F)c(Cl)c2)NC(=O)CN(C)C(=O)[C@H](CC2CCCCC2)N(C)C(=O)CN(C)C(=O)CN(C)C1=O [Compound 463] ([NMeL]I[Sar][Sar][NMeCha][Sar][hPhe(3-Cl-4-CF3)][NMeD](N(CH2CH2)2CF2)[Aib][NMeV][NMeD]-Piperidide; lactam N-11) | 4.4 nM
CC[C@H](C)[C@@H]1NC(=O)[C@H](C2CCC2)N(C)C(=O)C[C@@H](C)NC(=O)[C@H](C(C)C)N(C)C(=O)C2(CCCC2)NC(=O)[C@@H]2CCCN2C(=O)[C@H](CCc2ccc(C(F)(F)F)c(Cl)c2)NC(=O)CN(C)C(=O)[C@H](CC2CCCCC2)N(C)C(=O)[C@@H]2CCN2C(=O)[C@H](C)N(C)C1=O [Compound 465] (cyclo([Ac5c][NMeV][d(β3hA)][NMeGly(cBu)]I[NMeA][Aze][NMeCha][Sar][hPhe(3-Cl-4-CF3)]P)) | 55 nM
CC[C@H](C)[C@@H]1NC(=O)[C@H](C)N(C)C(=O)C[C@@H](C(=O)N2CCCC2)NC(=O)[C@H](C(C)C)N(C)C(=O)[C@H](Cc2ccccc2)N(C)C(=O)[C@H](Cc2ccccc2)NC(=O)[C@H](Cc2cccc(C)c2)NC(=O)CN(C)C(=O)[C@H](Cc2ccc(Cl)cc2)N(C)C(=O)CN(C)C(=O)CN(C)C1=O [Compound 467] ([NMeA]I[Sar][Sar][NMePhe(4-Cl)][Sar][Phe(3-Me)]F[NMeF][NMeV]D-Pyrrolidide; lactam N-11) | 200 nM
CC[C@H](C)[C@@H]1NC(=O)[C@H](CC(C)C)N(C)C(=O)C[C@@H](C(=O)N2CCCCC2)N(C)C(=O)[C@H](C(C)C)N(C)C(=O)C2(CC2)NC(=O)[C@@H]2CCCN2C(=O)[C@H](CCc2ccc(C(F)(F)F)c(Cl)c2)NC(=O)CN(C)C(=O)[C@H](CC2CCCCC2)N(C)C(=O)CN(C)C(=O)CN(C)C1=O [Compound 468] ([NMeL]I[Sar][Sar][NMeCha][Sar][hPhe(3-Cl-4-CF3)]P[Ac3c][NMeV][NMeD]-Piperidide; lactam N-11) | 2.5 nM
CC[C@H](C)[C@@H]1NC(=O)[C@H](C)N(C)C(=O)C[C@@H](C(=O)N2CCCCC2)NC(=O)[C@H](CC(C)C)N(C)C(=O)[C@H](Cc2ccccc2)N(C)C(=O)[C@H](CC(C)C)NC(=O)[C@H](Cc2cccc(OC(F)(F)F)c2)NC(=O)CN(C)C(=O)[C@H](Cc2ccc(Cl)cc2)N(C)C(=O)CN(C)C(=O)CN(C)C1=O [Compound 473] ([NMeA]I[Sar][Sar][NMePhe(4-Cl)][Sar][X82]L[NMeF][NMeL]D-Piperidide; lactam N-11) | 410 nM
CC[C@H](C)[C@@H]1NC(=O)[C@H](CC(C)C)N(C)C(=O)C[C@@H](C(=O)N2CCCCC2)N(C)C(=O)[C@H](C2CCCCC2)N(C)C(=O)C2(CCCC2)NC(=O)[C@H](Cc2cncc(C)c2)N(C)C(=O)[C@H](CCc2ccc(C(F)(F)F)c(Cl)c2)NC(=O)CN(C)C(=O)[C@H](CC2CCCCC2)N(C)C(=O)[C@@H]2CCN2C(=O)CN(C)C1=O [Compound 477] ([NMeL]I[Sar][Aze][NMeCha][Sar][hPhe(3-Cl-4-CF3)][X17][Ac5c][NMeChg][NMeD]-Piperidide; lactam N-11) | 4.3 nM
CC[C@H](C)[C@@H]1NC(=O)[C@H](CC(C)C)N(C)C(=O)C[C@@H](C(=O)N2CCCCC2)N(C)C(=O)[C@H](C2CCCCC2)N(C)C(=O)C2(CCCC2)NC(=O)[C@H](Cc2ccc(C(F)(F)F)nc2)N(C)C(=O)[C@H](CCc2ccc(C(F)(F)F)c(Cl)c2)NC(=O)CN(C)C(=O)[C@H](CC2CCCCC2)N(C)C(=O)[C@@H]2CCN2C(=O)[C@H](C)N(C)C1=O [Compound 479] ([NMeL]I[NMeA][Aze][NMeCha][Sar][hPhe(3-Cl-4-CF3)][X12][Ac5c][NMeChg][NMeD]-Piperidide; lactam N-11) | 300 nM
CC[C@H](C)[C@@H]1NC(=O)[C@H](C)N(C)C(=O)C[C@@H](C)NC(=O)[C@H](C2CCCC2)N(C)C(=O)C2(CCCC2)NC(=O)[C@@H]2CCCN2C(=O)[C@H](CCc2ccc(C(F)(F)F)c(Cl)c2)NC(=O)[C@@H](C)N(C)C(=O)[C@H](Cc2ccccc2)N(C)C(=O)CN(C)C(=O)CN(C)C1=O [Compound 482] (cyclo([Ac5c][NMeGly(cPent)][d(β3hA)][NMeA]I[Sar][Sar][NMeF][dNMeA][hPhe(3-Cl-4-CF3)]P)) | 170 nM
CCCC[C@@H]1NC(=O)[C@H](Cc2cccc(I)c2)NC(=O)CN(C)C(=O)[C@H](Cc2ccc(Cl)cc2)N(C)C(=O)CN(C)C(=O)CN(C)C(=O)[C@H]([C@@H](C)CC)NC(=O)[C@H](CC(C)C)N(C)C(=O)C[C@@H](C(=O)N2CCCCC2)N(C)C(=O)[C@H](CC(C)C)NC(=O)[C@H](Cc2cccc(F)c2)N(C)C1=O [Compound 483] ([NMeL]I[Sar][Sar][NMePhe(4-Cl)][Sar][Phe(3-I)][Nle][NMePhe(3-F)]L[NMeD]-Piperidide; lactam N-11) | 17 nM
